The source of these data is patent publication US8936787B2, “Peptides promoting lipid efflux” (The United States of America as represented by the …, priority 2008, dated 2015).

Data set [1] has as its system HeLa cells stably transfected with human ABCA1 cDNA (ABCA1 cells). The data set can be described thus: Cholesterol and phospholipid efflux from ABCA1 cells. In kind it is cell-based. Conditions: for cholesterol efflux from ABCA1 cells to detergent: sublytic concentration (taurodeoxycholate 0.02%, 1 hour). How it is done:
(§1) Percentage efflux was calculated after subtracting the radioactive counts in the blank media (αMEM plus 1 mg/ml of BSA), and expressed as the percent of total radioactive counts removed from the cells during the efflux period.
(§2) Cell fixation was performed by a 10 minute treatment with 3% paraformaldehyde in phosphate buffered saline (PBS), followed by three washes with blank media. Lactate dehydrogenase (LDH) release from cells into the media was measured enzymatically (Roche Diagnostics, Indianapolis, Ind.) and expressed, after subtraction of LDH released into blank media, as the percentage of total cell LDH. Total cell LDH was determined after cell solubilization with 1% Triton X-100.

Another data set relates to control cells. The data set can be described thus: LDH release from control cells. In kind it is cell-based. The conditions noted are these: 40 μg/ml for 18 hours. How it is done:
as §2
(§3) The microsolubilization of the plasma membrane of cells could, therefore, be potentially cytotoxic, but no morphologic effect was observed on the cells after incubation with the peptides or apoA-I, during the efflux experiments. Incubation of the cells with L-37pA and D-37pA at the maximum concentration and time used for the efflux studies (40 μg/ml for 18 hours) did, however, consistently result in the release of a small amount of LDH from both cell lines (control cells: L-37pA (6.1%±0.2), D-37pA (6.6%±0.1); ABCA1 cells: L-37pA (4.3%±0.04), D-37pA (5.7%±0.1)).

The test system of data set [2] is ABCA1 cells. In words: LDH release from ABCA1 cells. In kind it is cell-based, human. The conditions noted are these: 40 μg/ml for 18 hours. How it is done:
as §2, §3

Data set [3] has as its system HeLa cells transfected with only a hygromycin-resistant control plasmid (control cells). In words: Cholesterol and phospholipid efflux from control cells. In kind it is cell-based. The conditions noted are these: for lipid (cholesterol and phospholipid) efflux from control cells: 18 hours. How it is done: as §1, §2
A further data set concerns red blood cells. The data set can be described thus: Red blood cell hemolysis assay. It counts as cell-based. Conditions: 1 hour at 37° C., maximum dose tested. As for the experimental part: Red blood cells were incubated with the indicated concentration of the peptides for 1 hour at 37° C. Results are expressed as the mean of triplicates ±1 SD.
Approximately 25% of the red blood cells were lysed after 1 hour at the maximum dose tested (FIG. 9). Overall, the modified peptides containing the Ala substitutions were less cytotoxic, and the degree of cytotoxicity closely correlated with the number of Ala substitutions.

A further data set has as its system Normal skin fibroblasts. The data set can be described thus: Cholesterol efflux from normal skin fibroblasts. It counts as cell-based. Conditions: 10 μg/ml, 18 hour. As for the experimental part: (§4) FIG. 5 is a graph illustrating ABCA1-independent efflux of cholesterol from Tangier disease fibroblasts. Normal skin fibroblasts (open bars) and Tangier disease skin fibroblasts (solid bars) were examined for their ability to efflux cholesterol over an 18 hour period when treated with 10 μg/ml apoA-I (A), 10 μg/ml L-37pA (L), and 10 μg/ml D-37pA (D). Results are expressed as the mean of triplicates ±1 SD.
(§5) In order to confirm that the residual lipid efflux from the control cells to L-37pA and D-37pA (see FIG. 1) was not due to a low level of endogenous ABCA1, a Tangier disease fibroblast cell line with a truncated non-functional ABCA1 transporter (Remaley et al., Proc. Natl. Acad. Sci. USA 96:12685-12690, 1999) was evaluated for lipid efflux (FIG. 5).

Data set [4] relates to Tangier disease fibroblast cell line with a truncated non-functional ABCA1 transporter. In words: Cholesterol efflux from Tangier disease fibroblasts. It counts as cell-based. Conditions: 10 μg/ml, 18 hour. As for the experimental part:
as §4, §5

For data set [5], the system named is ABCA1 cells. The data set can be described thus: Competitive binding of radiolabeled L-37pA to ABCA1 cells. Conditions: 8 μM, the maximum concentration tested; 4° C. The arrangement: species or system human. As for the experimental part:
FIGS. 7A-7B are a pair of graphs illustrating the competitive binding of L-37pA peptide to ABCA1 transfected cells and control cells. ABCA1 cells (FIG. 7A) and control cells (FIG. 7B) were incubated for 3 hours at 4° C. with the indicated concentration of the competitor proteins [L-37pA (triangle), D-37pA (open square), apoA-I (closed circle), L2D-37pA (star), and L3D-37pA (open circle)] and were then washed and incubated for 1 hour at 4° C. with 1 μg/ml of radiolabeled L-37pA peptide. Results are expressed as the mean of triplicates ±1 SD.
The L-37pA peptide was labeled with ^125I using iodine monochloride. Confluent cells grown on 12-well plates were incubated for 3 hours at 4° C. with the indicated concentration of the unlabeled competitor peptide in αMEM media plus 10 mg/ml of BSA (FIG. 7). […] Cells were washed three times, and cell bound counts were determined after solubilization with 0.1 N NaOH.
A two-step sequential competitive binding assay was performed in order to prevent any potentially interfering interaction of the radiolabeled peptide with the competitor proteins (Mendez et al., J. Clin. Invest. 94:1698-1705, 1994). The cells were first incubated with the competitor proteins for 3 hours, washed, and then the cell binding of the radiolabeled L-37 peptide was measured. […]

[6] abbreviates: 10 μg/ml, 30 hour efflux period.

Entries after “also recorded” stand apart in the source; their conditions may differ. Square brackets hold non-standard residues; d marks the D form. Ends that are not written are not given here. Peptide text beside a SMILES is read from it.

`C[C@H](CCC(=O)NCCC[N+](C)(C)CCCS(=O)(=O)[O-])[C@H]1CC[C@H]2[C@@H]3[C@H](O)C[C@@H]4C[C@H](O)CC[C@]4(C)[C@H]3C[C@H](O)[C@]12C` [CHAPS, reference compound]: the “cholesterol efflux from ABCA1 cells to detergent” value in data set [1] is “Nearly identical results”.

Consider `CC(C)C[C@@H](NC(=O)[C@@H](Cc1c[nH]c2ccccc12)NC(=O)[C@H](N)CC(=O)O)C(=O)N[C@H](CCCCN)C(=O)N[C@H](C)C(=O)N[C@H](Cc1ccccc1)C(=O)N[C@H](Cc1ccc(O)cc1)C(=O)N[C@H](CC(=O)O)C(=O)N[C@H](CCCCN)C(=O)N[C@@H](C(=O)N[C@H](C)C(=O)N[C@H](CCC(=O)O)C(=O)N[C@H](CCCCN)C(=O)N[C@H](CC(C)C)C(=O)N[C@H](CCCCN)C(=O)N[C@H](CCC(=O)O)C(=O)N[C@H](C)C(=O)N[C@H](Cc1ccccc1)C(=O)N1CCC[C@@H]1C(=O)N[C@H](CC(=O)O)C(=O)N[C@H](Cc1c[nH]c2ccccc12)C(=O)N[C@H](CC(C)C)C(=O)N[C@H](CCCCN)C(=O)N[C@H](C)C(=O)N[C@H](Cc1ccccc1)C(=O)N[C@H](Cc1ccc(O)cc1)C(=O)N[C@H](CC(=O)O)C(=O)N[C@H](CCCCN)C(=O)N[C@@H](C(=O)N[C@H](C)C(=O)N[C@H](CCC(=O)O)C(=O)N[C@H](CCCCN)C(=O)N[C@H](CC(C)C)C(=O)N[C@H](CCCCN)C(=O)N[C@H](CCC(=O)O)C(=O)N[C@H](C)C(=O)N[C@H](Cc1ccccc1)C(=O)O)C(C)C)C(C)C` [D-37pA] (H-[dD][dW][dL][dK][dA][dF][dY][dD][dK][dV][dA][dE][dK][dL][dK][dE][dA][dF][dP][dD][dW][dL][dK][dA][dF][dY][dD][dK][dV][dA][dE][dK][dL][dK][dE][dA][dF]-OH; N-terminus and C-terminus assumed), for which the “release of LDH from control cells, percentage of total cell LDH” value with control cells was 6.6%±0.1. Moreover, in the data set with ABCA1 cells [2], the “release of LDH from ABCA1 cells, percentage of total cell LDH” value is on record as 5.7%±0.1.

`C[C@H](CCC(=O)NCCS(=O)(=O)O)[C@H]1CC[C@H]2[C@@H]3CC[C@@H]4C[C@H](O)CC[C@]4(C)[C@H]3C[C@H](O)[C@]12C` [taurodeoxycholate, reference compound]: the “cholesterol efflux from ABCA1 cells to detergent” value in data set [1] is listed as “small amount of cholesterol efflux”. Further, the “cholesterol efflux from control cells to detergent” value in data set [3] (taurodeoxycholate 0.02%, 1 hour) is “Approximately the same amount”.

Take “DWLKAFYDKVAEKLKEAFPDWAKAAYDKAAEKAKEAA [5A]”: the “red blood cells lysed (hemolysis)” value in the data set on red blood cells is recorded as “no appreciable hemolysis”.

“DWLKAFYDKVAEKLKEAFPDWLKAAYDKAAEKAKEAA [4A]”: the “red blood cells lysed (hemolysis)” value in the data set on red blood cells is given as “no appreciable hemolysis”.

In the case of “DWLKAFYDKVAEKLKEAFPDWLKAAYDKVAEKAKEAA [3A]”, in the data set on red blood cells, the “red blood cells lysed (hemolysis)” value is “moderate degree of hemolysis”.

In the case of “DWLKAFYDKVAEKLKEAFPDWLKAFYDKVA EKLKEAF [37pA, reference compound]”, the “lipid (cholesterol and phospholipid) efflux from ABCA1 cells” value (from here on “lipid … from ABCA1 cells”) in data set [1] (18 hours) is reported as “promoted ABCA1-mediated cholesterol efflux”. The “lipid (cholesterol and phospholipid) efflux from control cells” value (“lipid … from control cells” for short) in data set [3] is recorded as “also able to mediate cholesterol efflux”.

As to “DWLKAFYDKVAEKLKEAFPDWLKAFYDKVAEKAKEAA [2A]”, the “red blood cells lysed (hemolysis)” value with red blood cells is “moderate degree of hemolysis”.

For the molecule “DWLKAFYDKVAEKLKEAFPDWLKAFYDKVAEKAKEAF [1A]”, the “red blood cells lysed (hemolysis)” value in the data set with red blood cells is “moderate degree of hemolysis”.

For “DWLKAFYDKVAEKLKEAFPDWLKAFYDKVAEKLKEAF [L-37pA]”, the “release of LDH from control cells, percentage of total cell LDH” value with control cells is 6.1%±0.2. The “release of LDH from ABCA1 cells, percentage of total cell LDH” value with ABCA1 cells [2] is recorded as 4.3%±0.04.

Take NP-40 [reference compound]: in data set [1], the “cholesterol efflux from ABCA1 cells to detergent” value is given as “Nearly identical results”.

For the molecule “RMRITERDDFRGQMSEITDDCPSLQDRFHLTEVHSLRVLEGS (Gamma crystalline peptide.) [contains two non-amphipathic alpha helices, reference compound]”, in data set [1] (18 hours), the “lipid … from ABCA1 cells” value is “completely ineffective”. The “lipid … from control cells” value in data set [3] is reported as “completely ineffective”.

As for “apoA-I: apolipoprotein A-I, the predominant protein constituent of HDL”, in data set [1] (10 μg/ml, 18 hours, 3% paraformaldehyde), the “cholesterol efflux from ABCA1 cells after fixation with paraformaldehyde” value is “completely blocked”. The “time at which cholesterol efflux from ABCA1 cells was first detectable” value in data set [1] (setting [6]) is 2 h. Further, in data set [1] (18 hours), the “lipid … from ABCA1 cells” value is “do so after transfection with ABCA1”; the “protein concentration at which lipid efflux began to show saturation” value is ~10 µg/mL. The “molar concentration at which lipid efflux began to show saturation” value in data set [1] (corresponds to 10 μg/ml) is 0.36 µM. The “cholesterol efflux from control cells over the time course” value in data set [3] (setting [6]) is on record as “no significant increase above background”. For the same molecule, in data set [3], the “lipid … from control cells” value is listed as “do not efflux significant amounts; also recorded: unable”. Moreover, the “cholesterol efflux from normal fibroblasts” value in the data set on Normal skin fibroblasts is “effluxed cholesterol”. In addition, the “cholesterol efflux from Tangier disease fibroblasts” value in data set [4] was “did not efflux significant amounts”. In addition, the “binding of labeled L-37pA to ABCA1 cells blocked by competitor” value with ABCA1 cells [5] is “approximately 30%”.
